Results on 32 compounds are retold here after ChEMBL document CHEMBL3286254, “Structure-guided discovery of 1,3,5 tri-substituted benzenes as potent and selective matriptase inhibitors exhibiting in vivo antitumor efficacy” (Bioorg Med Chem, 2014).

Broadly, the Ki is the dissociation constant of the complex between target and ligand, obtained from inhibition or displacement. A word on the inhibition: it is how much of the control response was suppressed.

Assay [1] has as its target T1, Suppressor of tumorigenicity 14 protein (Homo sapiens, UniProt Q9Y5Y6).
T1 sequence (Q9Y5Y6 whole entry): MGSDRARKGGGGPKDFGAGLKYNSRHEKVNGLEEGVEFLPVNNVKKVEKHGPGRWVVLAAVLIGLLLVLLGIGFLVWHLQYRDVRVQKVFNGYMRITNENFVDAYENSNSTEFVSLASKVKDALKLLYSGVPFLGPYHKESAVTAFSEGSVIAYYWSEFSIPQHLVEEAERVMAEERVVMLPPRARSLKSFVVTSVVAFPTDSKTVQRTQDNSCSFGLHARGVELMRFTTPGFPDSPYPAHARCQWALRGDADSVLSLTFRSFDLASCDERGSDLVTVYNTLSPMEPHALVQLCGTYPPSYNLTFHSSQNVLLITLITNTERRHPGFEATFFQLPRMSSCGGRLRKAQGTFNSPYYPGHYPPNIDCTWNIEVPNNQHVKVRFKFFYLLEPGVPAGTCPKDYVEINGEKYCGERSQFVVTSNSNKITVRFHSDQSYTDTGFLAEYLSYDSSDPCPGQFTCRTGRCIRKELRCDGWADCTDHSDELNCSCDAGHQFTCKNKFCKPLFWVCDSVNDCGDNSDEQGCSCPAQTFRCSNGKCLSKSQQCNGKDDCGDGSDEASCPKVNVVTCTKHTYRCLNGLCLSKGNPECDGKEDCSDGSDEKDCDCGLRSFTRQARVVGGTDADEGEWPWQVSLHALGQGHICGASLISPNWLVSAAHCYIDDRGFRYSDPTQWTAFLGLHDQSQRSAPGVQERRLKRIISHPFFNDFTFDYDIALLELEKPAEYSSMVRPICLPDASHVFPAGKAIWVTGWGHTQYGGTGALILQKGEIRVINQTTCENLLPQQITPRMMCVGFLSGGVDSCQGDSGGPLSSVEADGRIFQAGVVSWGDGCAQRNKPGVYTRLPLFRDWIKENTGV
Kind of assay: Inhibition of recombinant matriptase (unknown origin) using Boc-Gln-Ala-Arg-7-amido-4-methyl coumarin hydrobromide.

Assay [2] concerns the target Prothrombin (Homo sapiens, UniProt P00734). The assay is described as follows: Inhibition of human thrombin using Boc-Gln-Ala-Arg-7-amido-4-methyl coumarin hydrobromide.
Assay [3] concerns the target Coagulation factor X (Bos taurus, UniProt P00743). Kind of assay: Inhibition of bovine plasma factor 10a using CH3OCO-D-CHA-Gly-Arg-pNA.AcoH substrate.
For assay [4], the target named is Trypsin (Homo sapiens, UniProt P07477+P07478+P35030). The assay is described as follows: Inhibition of human pancreas Trypsin using Boc-Gln-Ala-Arg-7-amido-4-methyl coumarin hydrobromide. It counts as protein assay.
Assay [5] concerns the target Plasminogen (Homo sapiens, UniProt P00747). Kind of assay: Inhibition of human plasmin using pyroGlu-Phe-Lys-pNA.HCl.
Assay [6] has as its system PC-3. Kind of assay: Cytotoxicity against human PC3 cells assessed as cell survival at 10 uM after 72 hrs by calcein AM assay. It counts as functional. To be noted: PC-3, 72 h, read-out: Activity.
The test system of assay [7] is DU-145. The assay is described as follows: Cytotoxicity against human DU145 cells assessed as cell survival at 10 uM after 72 hrs by calcein AM assay. It counts as functional. To be noted: DU-145, 72 h, read-out: Activity.
In assay [8] the test system is PC-3. Kind of assay: Antiinvasion activity in human PC3 cells assessed as inhibition of FBS-induced cell invaded to lower surface at 10 uM for 3 days by matrigel assay. In kind it is functional. As to conditions: PC-3, 72 h.
Assay [9] can be described thus: Cytotoxicity against human LNCaP-C42B4 cells assessed as cell survival at 10 uM after 72 hrs by calcein AM assay. In kind it is functional. To be noted: LNCaP-C42B4, 72 h, read-out: Activity.
The nature of assay [10]: Antiinvasion activity in human LNCaP-C42B4 cells assessed as inhibition of FBS-induced cell invaded to lower surface at 10 uM for 3 days by matrigel assay. To be noted: LNCaP-C42B4, 72 h. In kind it is functional.
The test system of assay [11] is DU-145. The assay is described as follows: Antiinvasion activity in human DU145 cells assessed as inhibition of FBS-induced cell invaded to lower surface at 10 uM for 3 days by matrigel assay. It counts as functional. To be noted: DU-145, 72 h.

Chain of Coagulation factor X (P00743 41-180 limits assumed): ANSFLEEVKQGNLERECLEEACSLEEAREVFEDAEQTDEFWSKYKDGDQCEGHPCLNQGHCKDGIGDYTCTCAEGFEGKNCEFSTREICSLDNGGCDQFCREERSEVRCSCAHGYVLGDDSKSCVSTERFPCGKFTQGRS
Chain of Coagulation factor X (P00743 234-492 limits assumed): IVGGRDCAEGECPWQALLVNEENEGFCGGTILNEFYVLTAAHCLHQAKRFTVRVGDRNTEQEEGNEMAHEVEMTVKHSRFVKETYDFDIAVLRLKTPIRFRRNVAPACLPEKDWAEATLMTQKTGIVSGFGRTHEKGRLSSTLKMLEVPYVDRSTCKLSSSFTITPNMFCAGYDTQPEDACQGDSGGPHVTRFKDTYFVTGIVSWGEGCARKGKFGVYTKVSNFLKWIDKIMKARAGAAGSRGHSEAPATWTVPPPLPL
Chain of Plasminogen (P00747 97-580 limits assumed): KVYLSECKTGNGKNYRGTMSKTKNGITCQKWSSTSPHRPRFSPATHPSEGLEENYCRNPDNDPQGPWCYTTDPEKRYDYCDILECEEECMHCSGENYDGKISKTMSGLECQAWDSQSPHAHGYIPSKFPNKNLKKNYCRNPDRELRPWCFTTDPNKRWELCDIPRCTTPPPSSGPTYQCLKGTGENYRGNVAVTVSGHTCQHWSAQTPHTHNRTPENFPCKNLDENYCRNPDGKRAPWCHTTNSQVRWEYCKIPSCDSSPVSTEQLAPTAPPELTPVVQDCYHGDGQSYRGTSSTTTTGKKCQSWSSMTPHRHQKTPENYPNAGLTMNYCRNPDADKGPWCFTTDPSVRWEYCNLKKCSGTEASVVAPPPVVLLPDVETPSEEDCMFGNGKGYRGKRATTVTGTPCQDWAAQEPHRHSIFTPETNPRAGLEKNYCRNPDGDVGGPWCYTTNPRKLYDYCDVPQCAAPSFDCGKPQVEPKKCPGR
Chain of Plasminogen (P00747 581-810 limits assumed): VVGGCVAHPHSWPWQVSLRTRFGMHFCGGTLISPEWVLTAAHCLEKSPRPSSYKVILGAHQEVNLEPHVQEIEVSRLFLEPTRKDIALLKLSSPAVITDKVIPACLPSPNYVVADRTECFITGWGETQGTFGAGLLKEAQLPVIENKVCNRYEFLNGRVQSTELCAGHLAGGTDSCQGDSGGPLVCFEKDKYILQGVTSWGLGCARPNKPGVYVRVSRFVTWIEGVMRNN

On to `N=C(N)c1ccc(Oc2ccc(Oc3ccc(C(=N)N)cc3)cc2)cc1`, for which the inhibition constant (Ki) in [1] was determined as 200 nM.

For `N=C(N)c1ccc(Oc2cc(Oc3ccc(C(=N)N)cc3)cc(C(N)=O)c2)cc1`, the Ki in assay [2] came out at 1060 nM; in [3] it was 785 nM; in assay [1] it was 1620 nM; in assay [4] it was 640 nM.

With `N=C(N)c1ccc(Oc2cc(N)cc(Oc3ccc(C(=N)N)cc3)c2)cc1`, the Ki in [2] turned out to be 2820 nM; in assay [3], 851 nM; in assay [1], 1060 nM; in [4] it was 534 nM.

Take `N=C(N)c1ccc(Oc2cc(Oc3ccc(C(=N)N)cc3)cc(C(=O)NC3CCCCC3)c2)cc1`: the Ki in [2] was found to be 1640 nM; in assay [3] it was 190 nM; in assay [5], 2390 nM; in assay [1], 592 nM; in assay [4], 179 nM.

`N=C(N)c1ccc(Oc2cc(Oc3ccc(C(=N)N)cc3)cc(C(=O)NCC3CCCCC3)c2)cc1`: the inhibition constant Ki in assay [2] came out at 2410 nM; in [3], 73 nM; in assay [5], 2160 nM; in assay [1], 411 nM; in [4] it was 571 nM.

Take `CC1CCC(NC(=O)c2cc(Oc3ccc(C(=N)N)cc3)cc(Oc3ccc(C(=N)N)cc3)c2)CC1` (stereo not drawn): the Ki was found to be 744 nM in assay [2]; 282 nM in assay [3]; 3610 nM in assay [5]; 770 nM in assay [1]; 253 nM in assay [4].

For the compound `N=C(N)c1ccc(Oc2cc(Oc3ccc(C(=N)N)cc3)cc(C(=O)NC3CCC(O)CC3)c2)cc1` (stereo not drawn), the Ki amounted to 1240 nM in assay [2], 538 nM in assay [3] and 301 nM in assay [1].

As for `N=C(N)c1ccc(Oc2cc(Oc3ccc(C(=N)N)cc3)cc(C(=O)NC3CCN(CCO)CC3)c2)cc1`, the Ki in [2] was 1780 nM; in assay [3] it was 640 nM; in [1], 204 nM.

Turning to `N=C(N)c1ccc(Oc2cc(Oc3ccc(C(=N)N)cc3)cc(C(=O)NC3CCN(CCCN)CC3)c2)cc1`, the inhibitory constant (Ki) in assay [2] worked out at 1280 nM; in assay [3] it was 415 nM; in [1], 141 nM; in assay [4], 1035 nM.

With `N=C(N)c1ccc(Oc2cc(Oc3ccc(C(=N)N)cc3)cc(C(=O)N3CCC(CCN)CC3)c2)cc1`, the viability at 10 µM in assay [6] was 93%; in assay [7], 100%; in assay [9] it was 100%. Also, the Ki was determined as 4060 nM in assay [2], 1290 nM in assay [3], 94 nM in [1] and 545 nM in assay [4]. Besides, the values for the inhibition at 10 µM in assay [8], in assay [10] and in [11] were 54%, 61% and 62%, respectively.

As to `N=C(N)c1ccc(Oc2cc(Oc3ccc(C(=N)N)cc3)cc(C(=O)NCC3CCC(O)CC3)c2)cc1` (stereo not drawn), the Ki was 2850 nM in assay [2], 920 nM in [3], 1180 nM in [1] and 1550 nM in assay [4].

As for `CCOC(=O)N1CCC(NC(=O)c2cc(Oc3ccc(C(=N)N)cc3)cc(Oc3ccc(C(=N)N)cc3)c2)CC1`, the inhibition constant Ki in assay [3] stood at 1030 nM; in assay [5], 2630 nM; in [1] it was 1850 nM; in [4], 471 nM.

`N=C(N)c1ccc(Oc2cc(Oc3ccc(C(=N)N)cc3)cc(C(=O)N3CCC(C(=O)O)CC3)c2)cc1` returned a Ki in assay [4] of 718 nM.

Turning to `N=C(N)c1ccc(Oc2cc(Oc3ccc(C(=N)N)cc3)cc(C(=O)N3CCc4ccccc4C3)c2)cc1`, the Ki in assay [2] is 1560 nM; in assay [3], 273 nM; in assay [5] it was 3850 nM; in [1], 730 nM; in [4] it was 225 nM.

In the case of `N=C(N)c1ccc(Oc2cc(Oc3ccc(C(=N)N)cc3)cc(C(=O)Nc3ccc(F)cc3)c2)cc1`, the Ki in [2] stood at 2100 nM; in assay [3] it was 1880 nM; in assay [5], 2670 nM; in assay [1] it was 591 nM; in [4] it was 1636 nM.

Turning to `CC1CCC(C(=O)Nc2cc(Oc3ccc(C(=N)N)cc3)cc(Oc3ccc(C(=N)N)cc3)c2)CC1` (stereo not drawn), the Ki in [2] was 2340 nM; in assay [3], 743 nM; in [5], 1200 nM; in assay [1], 545 nM; in assay [4] it was 516 nM.

In the case of `N=C(N)c1ccc(Oc2cc(NC(=O)C3CCN(CCN)CC3)cc(Oc3ccc(C(=N)N)cc3)c2)cc1`, the Ki worked out at 2530 nM in [2]; 62 nM in assay [3]; 2410 nM in assay [5]; 18 nM in assay [1]; 1338 nM in assay [4].

For `N=C(N)c1ccc(Oc2cc(NC(=O)C3CCN(CCO)CC3)cc(Oc3ccc(C(=N)N)cc3)c2)cc1`, the inhibition constant Ki in [2] was 4200 nM; in assay [3], 1160 nM; in assay [1], 18 nM; in [4], 1468 nM.

For the compound `N=C(N)c1ccc(Oc2cc(NS(=O)(=O)c3ccc(F)cc3)cc(Oc3ccc(C(=N)N)cc3)c2)cc1`, the Ki in assay [2] was 4850 nM; in assay [3], 1160 nM; in [1], 1980 nM; in assay [4], 1388 nM.

For `N=C(N)c1ccc(Oc2cc(NS(=O)(=O)c3ccc4ccccc4c3)cc(Oc3ccc(C(=N)N)cc3)c2)cc1`, the Ki in assay [3] turned out to be 876 nM; in assay [1], 1790 nM; in assay [4], 3000 nM.

As to `N=C(N)c1ccc(Oc2cc(Oc3ccc(N)cc3)cc(C(=O)N[C@H]3CC[C@H](N)CC3)c2)cc1`, the Ki in [1] was 1130 nM; in assay [4], above 3000 nM.

In the case of `N=C(N)c1ccc(Oc2cc(Oc3ccc(N)nc3)cc(C(=O)N[C@H]3CC[C@H](N)CC3)c2)cc1`, the values for the Ki in assay [1] and in assay [4] were 2030 nM and above 3000 nM, respectively.

On to `N=C(N)c1ccc(Oc2cc(Oc3ccc(C(N)=O)cc3)cc(C(=O)N[C@H]3CC[C@H](N)CC3)c2)cc1`, for which the inhibitory constant (Ki) in assay [2] is 3540 nM; in assay [1], 824 nM; in assay [4] it was above 3000 nM.

`N=C(N)c1ccc(COc2cc(Oc3ccc(C(=N)N)cc3)cc(C(=O)N[C@H]3CC[C@H](N)CC3)c2)cc1`: the Ki in [2] came to 2810 nM; in assay [1], 10 nM; in assay [4] it was 1868 nM.

On to `N=C(N)c1ccc(Oc2cc(OCc3cccc(C(=N)N)c3)cc(C(=O)N[C@H]3CC[C@H](N)CC3)c2)cc1`, for which the inhibition constant Ki was determined as 2680 nM in assay [2], 1140 nM in [3], 6 nM in assay [1] and 1541 nM in assay [4].

As for `N=C(N)c1ccc(Oc2cc(Oc3ccc(NC(=O)CCN)cc3)cc(C(=O)N[C@H]3CC[C@H](N)CC3)c2)cc1`, the inhibitory constant (Ki) in assay [2] is 3250 nM; in [3] it was 3580 nM; in assay [1], 116 nM; in assay [4] it was above 3000 nM.

As for `N=C(N)c1ccc(Oc2cc(OCc3ccc(Br)nc3)cc(C(=O)N[C@H]3CC[C@H](N)CC3)c2)cc1`, the Ki in assay [2] is 3980 nM; in assay [3] it was 3680 nM; in assay [1] it was 793 nM; in [4], above 3000 nM.

On to `N=C(N)c1ccc(Oc2cc(OCc3ccc(Cl)cc3)cc(C(=O)N[C@H]3CC[C@H](N)CC3)c2)cc1`, for which the Ki in assay [1] was 470 nM.

For `NCc1ccc(Oc2cc(Oc3ccc(CN)cc3)cc(C(=O)N[C@H]3CC[C@H](N)CC3)c2)cc1`, the Ki in [1] is 1700 nM; in [4], 3850 nM.

Regarding `N=C(N)c1ccc(COc2cc(OCc3ccc(C(=N)N)cc3)cc(C(=O)N[C@H]3CC[C@H](N)CC3)c2)cc1`, the inhibition constant (Ki) in assay [2] amounted to 1640 nM; in assay [3], 1560 nM; in assay [1], 23 nM; in [4] it was 1022 nM.

On to `N=C(N)c1cccc(COc2cc(OCc3cccc(C(=N)N)c3)cc(C(=O)N[C@H]3CC[C@H](N)CC3)c2)c1`, for which the Ki in assay [2] is 1290 nM; in assay [3], 157 nM; in [1], 3 nM; in assay [4] it was 901 nM.

`N=C(N)c1cccc(C[C@@H](NS(=O)(=O)c2cccc(C3CCC(N)=NC3)c2)C(=O)N2CCC(CCN)CC2)c1` (stereo partly drawn): the inhibitory constant (Ki) in assay [1] stood at 0.08 nM.
